Results from patent US11998600B2, “Enhancing the therapeutic activity of an immune checkpoint inhibitor” (MaineHealth, priority 2015, dated 2024).

Key:
β3-integrin = β3-integrin phosphorylation in endothelial cells attached to collagen peptides, Western blot; type: cell-based, human; conditions: HUVEC, absence of growth factors; FIG. 7C
Method: (§1) Endothelial cells (HUVECs or HRMVECs) were incubated in serum free media with 1 mM MgCl2, 0.2 mM MnCl2 in the presence of a Src inhibitor, PP2, (10 μM) a P38MAPK inhibitor, SB202190 (10 μM) or vehicle only (DMSO) for 10 min at 37° C. Treated cells were then seeded on to immobilized P-1 and P-2 and lysates were collected at 15 min.
(§2) Whole cell and CAM tissue lysates were collected in RIPA buffer supplemented with 1× protease inhibitor and 1× phosphatase inhibitor and were run on polyacrylamide gels using denaturing conditions. Prior to loading the gels, 6× sample buffer was added to each of the lysates (final concentration 1×) and boiled for five minutes. Twenty to 50 μg of total protein were loaded into each lane. For detection of proteins larger than 50 kD, 10% gels were used; for proteins smaller than 50 kD 15% gels were used. […] Western blot bands were quantified using Image J software based on pixel intensity.
(§3) Because both RGD containing peptides bind αvβ3 coupled with the differential effect of these peptides on angiogenesis and inflammation, it was determined whether the RGD peptides differentially altered αvβ3-mediated signaling. […] Therefore, the differential phosphorylation of these protein kinases following the early mechanical-mediated interactions with the RGD containing collagen peptides was assessed. […]

[1] = system: chick chorioallantoic membrane (CAM); test: Chick CAM angiogenesis assay, induction by RGD collagen peptides; type: in vivo; conditions: chick CAM
Method: The chick chorioallantoic membrane (CAM) assays were carried out with some modifications (19). For all experiments CAMs of 10-day-old chick embryos obtained from Charles River (North Franklin, CT) were separated from the shell membrane. Filter discs either non-treated (inflammation assays) pretreated (angiogenesis assays) with cortisone acetate (3.0 mg/ml) containing RPMI only or FGF-2 (40 ng). CAMs were either non-treated or treated topically with Mab XL313, XL166 or a non-specific control antibody (10 μg/embryo every 24 h for three consecutive treatments). […] At the end of the incubation period the embryos were sacrificed and the CAM tissues were analyzed. Angiogenesis was quantified by counting the number of angiogenic branching blood vessels within the area of the filter disc. The angiogenic index was determined by subtracting the mean number of blood vessel branch points from untreated CAMs from each experimental condition. Eight to twelve embryos were used per condition and experiments were repeated at least three times.
To examine this possibility, the effects of the RGDKGE (SEQ ID NO. 1) containing collagen peptide on angiogenesis and inflammation in the chick CAM were assessed.

P38MAPK = P38MAPK phosphorylation in HRMVEC attached to collagen peptides, Western blot; type: cell-based, human; conditions: cells attached to immobilized peptide; FIG. 6E
Method: as §1
Whole cell and CAM tissue lysates were collected in RIPA buffer supplemented with 1× protease inhibitor and 1× phosphatase inhibitor and were run on polyacrylamide gels using denaturing conditions. Prior to loading the gels, 6× sample buffer was added to each of the lysates (final concentration 1×) and boiled for five minutes. Twenty to 50 μg of total protein were loaded into each lane. […] Gels were run at 60 volts (v) until the dye front passed through the stacking gel, and then the voltage was increased to 100V for the remainder of the separation. Precision Plus protein standards (Bio-Rad) were used to visualize migration. Protein was transferred to nitrocellulose membranes using a wet tank system and blocked for 1 h using 10% non-fat dried milk in tris-buffered saline with 0.01% Tween-20 (TBS-T). […] Membranes were washed 3 times in TBS-T for five minutes. Blots were then incubated with HRP conjugated secondary antibodies (1:15000) in 1% non-fat milk in TBS-T for 1 h. […] Western blot bands were quantified using Image J software based on pixel intensity.

Fak = Fak phosphorylation in endothelial cells attached to collagen peptides; type: cell-based, human; conditions: serum free conditions
Method: as §2, with “used. Gels were run at 60 volts (v) until the dye front passed through the stacking gel, and then the voltage was increased to 100V for the remainder of the separation. Precision Plus protein standards (Bio-Rad) were used to visualize migration.” for “used.”
as §3

HRMVEC = test: Cell proliferation assay, HRMVEC; type: cell-based, human; conditions: peptide 100 ng/ml, 24 hours; FIG. 8D
Method: HUVECs (WT, shYAP1 or control transfected) or HRMVECs were plated at 2,000 cells per well with complete EGM-2 media containing 2.0% FBS in the absence or presence of P-1, P-2 or P-C (100 ng/ml) and allowed to grow for 24 hours. Cell growth was monitored using a BrdU or MMT assay kits according to manufacturer's instructions. All assays were completed at least three times in triplicate wells.

Sequence: QGPRGDKGE [Mab P-2]
- increase of β3 phosphorylation, P-2 as compared to P-1 (β3-integrin): over 3 fold
- dose dependent induction of CAM angiogenesis ([1]; FIG. 5B): dose dependently enhanced angiogenesis
- dose of maximum induction of angiogenesis ([1]; FIG. 5B): 100 ng/CAM
- induction of CAM angiogenesis as compared to no treatment ([1]; peptides 100 ng/ml, FIG. 5C): significantly (P>0.05) induced angiogenesis
- phosphorylation of P38MAPK in HRMVEC, P-2 as compared to P-1 (P38MAPK): enhanced phosphorylation of P38MAPK
- Fak phosphorylation following ligation of peptide (Fak): Minimal Fak phosphorylation
- HRMVEC growth with soluble peptide (HRMVEC): significantly (P<0.05) enhanced endothelial cell growth
